Legend:
[1] = tested on: Hh signaling (Gli1 expression) in MB cells isolated from Ptch1+/− mice; test: Western blot of Gli1 protein expression in Ptc+/− MB cells; format: cell-based, mouse
Source text: Western blotting: Cells and tissues were lysed in RIPA buffer (Thermo) supplemented with protease (Roche) and phosphatase (Thermo) inhibitors cocktail. Total protein lysates were separated in 8% SDS-PAGE and transferred on PVDF membrane. Membranes were probed with antibodies against Gli1 (Cell Signaling, 1:1000) and GAPDH (Sigma-Aldrich, 1:1000). Western Blot signals were detected with SuperSignal West Pico Substrate and exposed on films. […] Having observed that MB cell proliferation was compromised after cholesterol deficiency, it was postulated that cholesterol may promote Hh pathway activation. Western blotting: Cells and tissues were lysed in RIPA buffer (Thermo) supplemented with protease (Roche) and phosphatase (Thermo) inhibitors cocktail. Total protein lysates were separated in 8% SDS-PAGE and transferred on PVDF membrane. Membranes were probed with antibodies against GLI1 (Cell Signaling, 1:1000), NSDHL (Proteintech, 1:1000), Ptch1 (Novus Biologicals, 1:1000), GAPDH (Sigma-Aldrich, 1:1000). Western Blot signals were detected with SuperSignal West Pico Substrate and exposed on films. MB cells isolated from Ptch1^+/− mice were treated with Simvastatin with and without addition of WSC. At 48 hours after the treatment, cells were harvested to measure Hh signaling through examining Gli1 expression by Western blotting. […]

[2] = tested on: Hh signaling (Gli1 protein expression) in NIH3T3 cells; test: Western blot of Gli1 protein in NIH3T3 cells upon Hh treatment; format: cell-based
Source text: (§1) Having observed that MB cell proliferation was compromised after cholesterol deficiency, it was postulated that cholesterol may promote Hh pathway activation. Western blotting: Cells and tissues were lysed in RIPA buffer (Thermo) supplemented with protease (Roche) and phosphatase (Thermo) inhibitors cocktail. Total protein lysates were separated in 8% SDS-PAGE and transferred on PVDF membrane. Membranes were probed with antibodies against GLI1 (Cell Signaling, 1:1000), NSDHL (Proteintech, 1:1000), Ptch1 (Novus Biologicals, 1:1000), GAPDH (Sigma-Aldrich, 1:1000). Western Blot signals were detected with SuperSignal West Pico Substrate and exposed on films.
MB cells isolated from Ptch1^+/− mice were treated with Simvastatin with and without addition of WSC. At 48 hours after the treatment, cells were harvested to measure Hh signaling through examining Gli1 expression by Western blotting. To further examine the requirement of cholesterol in Hh signal transduction, NIH3T3 cells that have all components involved in Hh signaling were utilized.
FIG. 4 (panels C and D) show Western blot analysis of GLI1 protein expression in Ptcfl/fl (see, FIG. 4, panel C) and SmoM2 MEFs (see, FIG. 4, panel D) following CreYFP carrying lentivirus infection and subsequent simvastatin, triparanol and water soluble cholesterol treatment for 48 hours in vitro. […] GAPDH was used as a loading control. […]

[3] = tested on: MB cells isolated from Ptch1+/− mice; test: Ki67 immunocytochemistry of cultured primary MB cells; format: cell-based, mouse
Description: MB cells isolated from Ptch1^+/− mice were cultured with NB-B27 culture medium (lacking cholesterol) in the presence of simvastatin or triparanol at designated concentrations.
Cell culture: Primary mouse medulloblastoma cells were isolated from full-blown mouse-derived tumor as described before (Yang et al., 2008, Cancer Cell, 14, 135-145). Obtained cells were cultured on glass coverslips coated with 0.1 mg/ml poly-D-lysine (Millipore, A-003-E). Cells were pulsed with 10 μM of BrdU (Millipore, 19-160) for 2 hours prior to the material collection time point. […]
Histology and immunohistochemistry: Cultured primary MB cells were fixed with 4% PFA on PBS for 15 minutes, permeabilized, and blocked in 10% normal goat serum on PBST (PBS, 0.1% Triton-X100) for 1 hour at room temperature and stained against Ki67 (Abcam, ab15580, 1:1000), NeuN (Abcam, ab104224, 1:200), Caspase 3 (Cell Signaling, 9662, 1:500), BrdU (Sigma-Aldrich, B-8434, 1:500), mCherry (Abcam, ab167453, 1:500), Zic1 (Generous gift from Dr. Sigal, Dana Farber Research Institute, 1:200), S1000 (Sigma-Aldrich, 1:500), YFP (Life Technologies, 1:500).
Prior to BrdU immunostaining, cells were incubated in pH 5.0 buffer for 30 minutes at 37 C. Secondary antibodies were applied at dilution 1:500 on 10% normal goat serum on PBST for 2 hours at room temperature. Samples were counterstained with DAPI and mounted with Fluoromount-G.
MB cells were isolated from Ptc^+/− mouse and cultured in presence of simvastatin (see, FIG. 2A, panels B-D) or triparanol (see, FIG. 2A, panel E), and water-soluble cholesterol (see, FIG. 2A, panels F-J). After 48 hours in vitro, culture cells were fixed, stained against Ki67 (red), and counterstained with DAPI. […] Significance asterisk key: p value <0.05 (*), p<0.01 (**), p<0.001 (***), p<0.0001 (****).

[4] = tested on: Hh signaling (Gli1 expression) in Ptch1-deficient MEFs; test: Western blot of Gli1 protein in Ptch1-deficient MEFs (Ptch1fl/fl + Cre lentivirus); format: cell-based, mouse
Source text: as §1
(§2) Primary mouse embryonic fibroblasts (MEFs) from Ptch1fl/fl mice carrying a proportion of Ptch1 gene flanked by loxp sites (Ellis et al., Genesis, 2003, 36, 158-161), or SmoM2 mice expressing a constitutively activated form of Smo upon Cre recombination (Jeong et al., Genes & Develop., 2004, 18, 937-951) were generated. MEFs were then infected with a lentivirus carrying Cre recombinase to activate Hh signaling, or with an empty vector as a control. At 48 hours after the infection, MEFs were harvested to examine Gli1 protein expression by Western blotting. […]

MB cells = test: MTT viability assay of MB cells; format: cell-based, mouse; details: after treatment with simvastatin or triparanol
[5] = tested on: Hh signaling (Gli1 protein expression) in Smo-activated MEFs; test: Western blot of Gli1 protein in Smo-activated (SmoM2) MEFs; format: cell-based, mouse; details: 48 hours
Source text: as §1, §2

[6] = tested on: Hh signaling (Ptch1 protein expression) in Gli1-overexpressed NIH3T3 cells; test: Western blot of Ptch1 protein in Gli1-overexpressed NIH3T3 cells; format: cell-based; details: 48 hours
Source text: as §1
FIG. 4 (panels C and D) show Western blot analysis of GLI1 protein expression in Ptcfl/fl (see, FIG. 4, panel C) and SmoM2 MEFs (see, FIG. 4, panel D) following CreYFP carrying lentivirus infection and subsequent simvastatin, triparanol and water soluble cholesterol treatment for 48 hours in vitro. […] GAPDH was used as a loading control. […] In the absence of Hh ligand, its receptor Ptch1, tethers pathway effector Smo. Bound to Ptch1, Hh releases Smo, causes activation of Gli1 transcription factor, and leads to transcription of Hh pathway genes (Gli1, Ptch1, etc.). Cholesterol promotes Smo activation during Hh signal transduction. […]

[7] = tested on: Ptc+/− MB subcutaneous allograft; test: Ptc+/− MB subcutaneous allograft in CB17/SCID mice; format: in vivo, mouse; details: vismodegib 5 mg/kg/day, per os

CC(C)CCC[C@@H](C)[C@H]1CC[C@H]2[C@@H]3CC=C4C[C@@H](O)CC[C@]4(C)[C@H]3CC[C@]12C [WSC, cholesterol]
Gli1 expression levels (western blotting) ([1]; 15 μM WSC, in vitro for 96 hours): rescued Gli1 expression levels
Gli1 expression in Simvastatin treated MB cells ([1]; addition of exogenous cholesterol, 48 hours): rescued Gli1 expression
Gli1 protein expression after Simvastatin or Triparanol treatment ([2]; NIH3T3 cells, exogenous cholesterol added): upregulated
tumor cell proliferation over time (Ki67 immunocytochemistry) ([3]; 15 μM WSC, 0 to 96 hours time course): prolonged tumor cell proliferation
rescue of repressed MB cell proliferation (Ki67) ([3]; addition of cholesterol after simvastatin or triparanol treatment, 48 hours): significantly rescued
MB cell proliferation in control culture (Ki67) ([3]; exogenous cholesterol, control culture without inhibitor): enhanced MB cell proliferation
restoration of Gli1 expression inhibited by simvastatin or triparanol ([4]; addition of exogenous cholesterol): restored

CCN(CC)CCOc1ccc(C(O)(Cc2ccc(Cl)cc2)c2ccc(C)cc2)cc1 (centres unmarked) [triparanol]
proliferation of MB cells by MTT viability assay (MB cells): Repressed proliferation
Gli1 protein expression ([2]; NIH3T3 cells upon Hh treatment, 48 hours): significantly repressed
percentage of proliferating MB cells (Ki67+) ([3]; 48 hours in culture, NB-B27 medium lacking cholesterol, vs DMSO control): Reduced proliferation
up-regulation of Gli1 protein expression [5]: not altered
Gli1 expression ([4]; 48 hours): dramatically inhibited
upregulation of Ptch1 protein expression [6]: not altered

CS(=O)(=O)c1ccc(C(=O)Nc2ccc(Cl)c(-c3ccccn3)c2)c(Cl)c1 [vismodegib (GDC0449), vismodegib]
MB growth [7]: prohibited MB growth
